Reference: ChEMBL document CHEMBL1131488, “Dihydropyrancarboxamides related to zanamivir: a new series of inhibitors of influenza virus sialidases. 1. Discovery, synthesis, biological activity, and structure-activity relationships of 4-guanidino- and 4-amino-4H-pyran-6-carboxamides” (J Med Chem, 1998)

Assays:
[1] = biological target: Neuraminidase (Influenza A virus (A/Puerto Rico/8/1934(H1N1)), UniProt P03468)
Neuraminidase [2] = biological target: T1, Neuraminidase (Influenza B virus (strain B/Lee/1940), UniProt P03474)
T1 sequence (P03474 whole entry): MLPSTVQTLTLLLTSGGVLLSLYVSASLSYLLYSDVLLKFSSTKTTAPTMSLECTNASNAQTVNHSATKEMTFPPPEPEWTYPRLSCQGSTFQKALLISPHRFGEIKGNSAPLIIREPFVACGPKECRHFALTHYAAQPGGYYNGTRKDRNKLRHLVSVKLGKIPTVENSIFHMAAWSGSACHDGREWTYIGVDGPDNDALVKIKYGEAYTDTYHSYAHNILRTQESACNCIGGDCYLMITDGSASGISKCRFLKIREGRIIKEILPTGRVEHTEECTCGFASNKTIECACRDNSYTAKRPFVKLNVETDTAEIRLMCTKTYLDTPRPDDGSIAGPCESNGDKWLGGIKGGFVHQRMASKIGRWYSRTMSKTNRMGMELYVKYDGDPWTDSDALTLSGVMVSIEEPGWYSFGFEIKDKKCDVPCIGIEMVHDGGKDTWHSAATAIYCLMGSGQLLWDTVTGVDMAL

[3] = biological target: Neuraminidase (Influenza A virus (A/Puerto Rico/8/1934(H1N1)), UniProt P03468); test: Inhibition of influenza A virus sialidase activity
Neuraminidase [4] = biological target: T1, Neuraminidase; test: Inhibition of influenza B virus sialidase activity
[5] = biological target: Neuraminidase (Influenza A virus (A/Puerto Rico/8/1934(H1N1)), UniProt P03468); test: Inhibition of sialidase (Flu A, 5 nM)
Neuraminidase [6] = biological target: T1, Neuraminidase; remark: listed apart in the source
Neuraminidase [7] = biological target: T1, Neuraminidase; test: Inhibitory activity against sialidase (influenza B virus by plaque reduction assay)
[8] = biological target: Neuraminidase (Influenza A virus (A/Puerto Rico/8/1934(H1N1)), UniProt P03468); remark: listed apart in the source
[9] = t1/2, plasma elimination half life, the time taken for the plasma concentrations to fall by one half, once distribution is complete at a dose of 50 mg/kg; assay type: ADME, organism-based; parameters: dose 50 mg/kg
[10] = biological target: Neuraminidase (Influenza A virus (A/Puerto Rico/8/1934(H1N1)), UniProt P03468); remark: listed apart in the source
[11] = Clp, plasma clearance at a dose of 50 mg/kg; assay type: ADME, organism-based; parameters: dose 50 mg/kg; conditions: read-out: Clp
Mus musculus [12] = test: Compound was tested for in vivo efficacy in mouse model of influenza A virus A/Singapore/1/57 at dose of 1 mg/kg.; assay type: functional
[13] = biological target: Neuraminidase (Influenza A virus (A/Puerto Rico/8/1934(H1N1)), UniProt P03468); remark: listed apart in the source
[14] = biological target: Neuraminidase (Influenza A virus (A/Puerto Rico/8/1934(H1N1)), UniProt P03468); remark: listed apart in the source
[15] = Vss, volume of distribution at steady state at a dose of 50 mg/kg; assay type: ADME, organism-based; parameters: dose 50 mg/kg; conditions: in vivo, read-out: Vss
Mus musculus [16] = test: Compound was tested for concentration of intranasally administered drug (10 mg/kg) which reduces virus titer by 90%; assay type: functional; conditions: inhaled or nasal
Mus musculus [17] = test: Compound was tested for in vivo efficacy in mouse model of influenza A virus A/Singapore/1/57 at dose of 10 mg/kg.; assay type: functional
Mus musculus [18] = test: Compound was tested for in vivo efficacy in mouse model of influenza A virus A/Singapore/1/57 at dose of 50 mg/kg.; assay type: functional

Sequence of Neuraminidase (Influenza A virus (A/Puerto Rico/8/1934(H1N1)), UniProt P03468) (P03468 whole entry): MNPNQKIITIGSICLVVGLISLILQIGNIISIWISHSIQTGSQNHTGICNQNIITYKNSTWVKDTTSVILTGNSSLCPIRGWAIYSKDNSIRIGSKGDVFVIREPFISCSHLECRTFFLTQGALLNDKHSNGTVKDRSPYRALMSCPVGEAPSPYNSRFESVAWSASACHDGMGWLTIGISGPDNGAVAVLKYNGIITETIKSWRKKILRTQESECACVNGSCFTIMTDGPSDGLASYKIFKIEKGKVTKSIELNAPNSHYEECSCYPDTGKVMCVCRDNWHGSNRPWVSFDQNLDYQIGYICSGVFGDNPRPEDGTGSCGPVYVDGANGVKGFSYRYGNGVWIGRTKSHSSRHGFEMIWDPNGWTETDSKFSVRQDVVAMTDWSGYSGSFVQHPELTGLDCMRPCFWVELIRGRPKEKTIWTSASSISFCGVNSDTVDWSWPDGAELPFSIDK

CC(=O)N[C@@H]1[C@@H](N)C=C(C(=O)O)O[C@H]1C(=O)N1C(C)CCN1C (stereo not given in full)
IC50 [1]: 52 nM
IC50 (Neuraminidase [2]): 20000 nM
IC50 [3]: 210 nM
IC50 (Neuraminidase [4]): 13000 nM

CC(=O)N[C@@H]1[C@@H](N)C=C(C(=O)O)O[C@H]1C(=O)NCCO
IC50 [5]: 420000 nM

CC(=O)N[C@@H]1[C@@H](N)C=C(C(=O)O)O[C@H]1C(=O)N(CCN=[N+]=[N-])CCc1ccccc1
IC50 [1]: 9 nM
IC50 (Neuraminidase [2]): 28000 nM

CC(=O)N[C@@H]1[C@@H](N)C=C(C(=O)O)O[C@H]1C(=O)NC1CCCCC1
IC50 (Neuraminidase [6]): > 450000 nM
IC50 [5]: 19000 nM

CC(=O)N[C@@H]1[C@@H](N)C=C(C(=O)O)O[C@H]1C(=O)N(CCCO)CCc1ccccc1
IC50 [3]: 3000 nM
IC50 (Neuraminidase [4]): > 360000 nM

CC(=O)N[C@@H]1[C@@H](N)C=C(C(=O)O)O[C@H]1C(=O)N(CCO)CCc1ccccc1
IC50 [3]: 12 nM
IC50 (Neuraminidase [4]): 100000 nM

CC(=O)N[C@@H]1[C@@H](N)C=C(C(=O)O)O[C@H]1C(=O)N1CCCC1C (stereo not given in full)
IC50 [3]: 310 nM
IC50 (Neuraminidase [4]): 210000 nM

CC(=O)N[C@@H]1[C@@H](N)C=C(C(=O)O)O[C@H]1C(=O)N(CCc1ccccc1)CC(C)C
IC50 [3]: 14 nM

CC(=O)N[C@@H]1[C@@H](N)C=C(C(=O)O)O[C@H]1C(=O)N(CCN)CCc1ccccc1
IC50 [3]: 47000 nM
IC50 (Neuraminidase [4]): 260000 nM

CC(=O)N[C@@H]1[C@@H](N)C=C(C(=O)O)O[C@H]1C(=O)N1CCCC1
IC50 (Neuraminidase [7]): > 100 µg/mL
IC50 [3]: 2900 nM

CCCN(CCc1cccc(O)c1)C(=O)[C@@H]1OC(C(=O)O)=C[C@H](N)[C@H]1NC(C)=O
IC50 [3]: 3 nM
IC50 (Neuraminidase [4]): 2300 nM

C=CCN(CC=C)C(=O)[C@@H]1OC(C(=O)O)=C[C@H](N)[C@H]1NC(C)=O
IC50 (Neuraminidase [6]): 8400 nM
IC50 [5]: 40 nM

CC(=O)N[C@@H]1[C@@H](N)C=C(C(=O)O)O[C@H]1C(=O)NCC(=O)O
IC50 [5]: > 480000 nM

CCCN(CCc1ccc(O)cc1)C(=O)[C@@H]1OC(C(=O)O)=C[C@H](N)[C@H]1NC(C)=O
IC50 [3]: 9 nM
IC50 (Neuraminidase [4]): 1900 nM

CCCN(CCc1ccc(Cc2ccccc2)cc1)C(=O)[C@@H]1OC(C(=O)O)=C[C@H](N)[C@H]1NC(C)=O
IC50 [3]: 270 nM
IC50 (Neuraminidase [4]): 5200 nM

CCC1CCC(CC)N1C(=O)[C@@H]1OC(C(=O)O)=C[C@H](N)[C@H]1NC(C)=O (stereo not given in full)
IC50 [3]: 290 nM
IC50 (Neuraminidase [4]): 26000 nM

CCCN(CCC)C(=O)[C@@H]1OC(C(=O)O)=C[C@H](N)[C@H]1NC(C)=O
IC50 [8]: 8 nM
half-life [9]: 21 min
IC50 [10]: 20 nM
clearance [11]: 12.5 mL/min/kg
Reduction in virus titer (Mus musculus [12]): 82%
IC50 [13]: 3 nM
IC50 [14]: 30 nM
Vd [15]: 0.4 L/kg
ED90 (Mus musculus [16]): 2.1 mg/kg
Reduction in virus titer (Mus musculus [17]): 99.84%

CCCN(C)C(=O)[C@@H]1OC(C(=O)O)=C[C@H](NC(=N)N)[C@H]1NC(C)=O
Reduction in virus titer (Mus musculus [18]): 74.5%
IC50 [8]: 5.6 nM
half-life [9]: 12.6 min
IC50 [10]: 28 nM
clearance [11]: 17.8 mL/min/kg
Reduction in virus titer (Mus musculus [12]): 95%
IC50 [13]: 3 nM
IC50 [14]: 26 nM
Vd [15]: 0.3 L/kg
ED90 (Mus musculus [16]): < 1 mg/kg
Reduction in virus titer (Mus musculus [17]): 99.9%

CCN(CC)C(=O)[C@@H]1OC(C(=O)O)=C[C@H](N)[C@H]1NC(C)=O
IC50 [8]: 40 nM
IC50 [10]: 20 nM
IC50 [13]: 5 nM
IC50 [14]: 85 nM
IC50 (Neuraminidase [4]): 360 nM

CC(=O)N[C@@H]1[C@@H](NC(=N)N)C=C(C(=O)O)O[C@H]1C(=O)NCCN
IC50 [5]: 20000 nM

CCCN(CCc1ccc(OC)cc1)C(=O)[C@@H]1OC(C(=O)O)=C[C@H](N)[C@H]1NC(C)=O
IC50 [3]: 8 nM
IC50 (Neuraminidase [4]): 3300 nM
